“Also recorded” adds a separate entry of the source.
Legend:
[1] = test system: vEDS mice, first 30 days postpartum; assay: Postpartum survival of lactating vEDS mice (pregnancy/breastfeeding model); format: in vivo, mouse
Excerpt: Previously, it was shown that pregnancy-associated aortic dissection is largely driven by lactation-associated oxytocin release and oxytocin-induced ERK signaling in MFS mouse aortas^11. Thus, oxytocin-induced ERK signaling was used as a method to test whether activation of the PLC/IP3/PKC/ERK axis would worsen the risk of aortic dissection.
Oxytocin-induced ERK signaling was used as a method to test the hypothesis that activation of the PLC/IP3/PKC/ERK axis would worsen the risk of aortic dissection.

vEDS mice = assay: Survival of drug-treated vEDS mice (death due to aortic dissection); format: in vivo, mouse; conditions: for survival rate: after about 30 days (1 month) of treatment; for protection from dissection or death: vEDS mice, dose not stated (early data)
Protocol: Novel knock-in glycine substitution (Col3a1 G209S/+ and Col3a1 G938D/+) vEDS mice were created using CRISPR/Cas9.
To introduce each mutation, 3 guide RNAs (tracrRNA+crRNA) were designed to target the DNA regions flanking the intended mutation site. A DNA oligo repair template (ssDNA oligo) was also designed that included homologous sequences upstream and downstream of the target region, as well as the intended mutation. Pronuclear injection of one-cell C57BL/6J embryos was performed by the JHU Transgenic Core using standard microinjection techniques using a mix of Cas9 protein, tracrRNA, crRNA, and ssDNA oligo diluted in RNAse free injection buffer. Injected embryos were transferred into the oviducts of pseudopregnant ICR females using established techniques. Sanger sequencing of the site was utilized to confirm introduction of the mutation, and the mice were backcrossed for at least 4 generations to eliminate off-target effects. For the G209S mouse, the mutation introduced was c.625_626 GG>TC, corresponding to p.Gly210Ser in humans. For the G938D mouse, the mutation introduced was c.2813G>A, corresponding to […] in humans. The Wild-type Human Col3a1 mRNA NCBI Accession No: NM_000090.3; the wild-type Mouse Col3a1 mRNA NCBI Accession No.: NM_009930.2.
Pharmacological ERK antagonists were tested to support the role of ERK activation in the pathogenesis of vEDS and as a method to identify therapeutic strategies for vEDS. Mice were treated with cobimetinib [GDC-0973, RO5514041] (2 mg/kg/day), an FDA-approved inhibitor of MEK, the kinase that activates ERK^8. It was hypothesized that if ERK activation was truly driving disease risk, ERK inhibition would rescue the risk of death from aortic dissection.
Next, further studies were performed to test agents that inhibit PKC activation. Mice were treated with ruboxistaurin [LY 333531] […] It was hypothesized that if ERK activation, and thereby disease risk, was driven by PLC/IP3/PKC activation, a pharmacologic PKC inhibitor would also rescue the risk of death from aortic dissection.
Further studies were performed to test other medications that inhibit this signaling cascade.

[2] = Blood pressure / hemodynamic stress in treated vEDS mice; format: in vivo, mouse; conditions: for effect on blood pressure: doses as in the survival studies; for hemodynamic stress: dose not stated
129 MFS mice = assay: Aortic root growth in Marfan syndrome mice; format: in vivo, mouse; conditions: ruboxistaurin 10 mg/kg/d, p=2E-4
Excerpt: In examples, different PKC-β inhibitors are used for the treatment of Marfan Syndrome. For example, treatment of Marfan Syndrome may include administration of ruboxistaurin. […] In other examples, treatment of Marfan Syndrome includes administration of enzastaurin or sotrastaurin.

Col3a1^G209S/+ mice = assay: Risk of aortic dissection in Col3a1 G209S/+ mice; format: in vivo, mouse; conditions: celiprolol; Col3a1 G209S/+ mutation
Excerpt: Others have proposed^5-8 that vEDS phenotypes are a result of chronically “weak” tissue and therefore propose that decreasing blood pressure with beta-adrenergic receptor blockers should decrease the risk of aortic rupture in these patients. […] Since this was not common to all β antagonists, this observation could be driven by celiprolol's β2 agonism activity.

patients with vEDS = conditions: small human study; cited from earlier work
MFS mice = conditions: cited from earlier work

des Gly-NH2,d(CH2)5[D-Tyr2,Thr4]OVT
survival postpartum ([1]; oxytocin receptor antagonist, first 30 days postpartum, mice still lactating): 95%

COc1ccccc1Oc1c(NS(=O)(=O)c2ccc(C(C)(C)C)cc2)nc(-c2ncccn2)nc1OCCO [bosentan]
survival (vEDS mice; bosentan 100 mg/kg/d, after 40 days of treatment, 50% survival in untreated vEDS mice, p=0.0298): 80%

Cn1cc(C2=C(c3cn(C4CCN(Cc5ccccn5)CC4)c4ccccc34)C(=O)NC2=O)c2ccccc21 [enzastaurin, 3-(1-Methylindol-3-yl)-4-[1-[1-(pyridin-2-ylmethyl)piperidin-4-yl]indol-3-yl]pyrrole-2,5-dione]
survival (vEDS mice; enzastaurin 60 mg/kg/d, after 40 days of treatment, 50% of untreated vEDS mice, p=0.0305): 80% | survival rate (vEDS mice; enzastaurin about 30 mg/kg/day orally): about 100%

CN(C)C[C@@H]1CCn2cc(c3ccccc32)C2=C(C(=O)NC2=O)c2cn(c3ccccc23)CCO1 [ruboxistaurin, (9S)-9-[(dimethylamino)methyl]-6,7,10,11-tetrahydro-9H,18H-5,21:12,17-di(metheno)dibenzo[e,k]pyrrolo[3,4-h][1,4,13]oxadiazacyclohexadecine-18,20-dione]
survival (vEDS mice; ruboxistaurin 10 mg/kg/day, after 39 days of treatment, 55% survival with no treatment): 100% | effect on blood pressure [2]: Neither cobimetinib nor ruboxistaurin had an effect on blood pressure | aortic root growth (129 MFS mice): reduces aortic root growth; also recorded: rescued the aortic root growth

CN1CCN(c2nc(C3=C(c4c[nH]c5ccccc45)C(=O)NC3=O)c3ccccc3n2)CC1 [sotrastaurin]
survival rate (vEDS mice; sotrastaurin about 30 mg/kg/day orally): about 100%

COC(=O)c1ccc2c(c1)NC(=O)/C2=C(\Nc1ccc(N(C)C(=O)CN2CCN(C)CC2)cc1)c1ccccc1 [nintedanib]
impact on survival (vEDS mice; nintedanib 50 mg/kg/d): no impact on survival

NNc1nncc2ccccc12 [hydralazine]
survival (vEDS mice; hydralazine 32 mg/kg/d, at 45 days of age, the median survival for an untreated vEDS mouse): 98% | survival in male mice (vEDS mice; hydralazine-only (32 mg/kg/d) treated male mice): 24% | survival postpartum ([1]; hydralazine 16 mg/kg/day, first 30 days postpartum, 60% lethality untreated): 95%

CC(C)NCC(O)COc1cccc2ccccc12 (stereo not drawn) [propranolol]
improvement in survival (vEDS mice; propranolol 80 mg/kg/d): none of these manipulations lead to an improvement in survival | survival postpartum ([1]; propranolol, after 30 days postpartum, vs. 50% survival): 46% | effect on postpartum survival ([1]; propranolol, first 30 days postpartum, mice still lactating): does not improve survival; also recorded: did not affect survival | effect on blood pressure [2]: lowers blood pressure; also recorded: decreases in blood pressure

CC(=O)Nc1cccc(-n2c(=O)n(C3CC3)c(=O)c3c(Nc4ccc(I)cc4F)n(C)c(=O)c(C)c32)c1 [trametinib]
survival postpartum ([1]; trametinib 1 mg/kg/day, first 30 days postpartum, 60% lethality untreated): 95%

CC(C)NCC(O)COc1ccc(CC(N)=O)cc1 (stereo not drawn) [atenolol]
improvement in survival (vEDS mice; atenolol 120 mg/kg/d): none of these manipulations lead to an improvement in survival | effect on blood pressure [2]: decreases in blood pressure

CC(O)(CS(=O)(=O)c1ccc(F)cc1)C(=O)Nc1ccc(C#N)c(C(F)(F)F)c1 (stereo not drawn) [bicalutamide]
survival in male mice (vEDS mice; bicalutamide alone, male mice): ~80%

CC(=O)S[C@@H]1CC2=CC(=O)CC[C@]2(C)[C@H]2CC[C@@]3(C)[C@@H](CC[C@@]34CCC(=O)O4)[C@H]12 [spironolactone]
survival (vEDS mice; spironolactone alone 100 mg/kg/d): ~80%

O=C(c1ccc(F)c(F)c1Nc1ccc(I)cc1F)N1CC(O)([C@@H]2CCCCN2)C1 [cobimetinib]
survival (vEDS mice; cobimetinib 2 mg/kg/day, after 45 days of treatment, 55% survival with no treatment): 94% | effect on blood pressure [2]: Neither cobimetinib nor ruboxistaurin had an effect on blood pressure

CCN(CC)C(=O)Nc1ccc(OCC(O)CNC(C)(C)C)c(C(C)=O)c1 (stereo not drawn) [celiprolol]
improvement in survival (vEDS mice; celiprolol 200 mg/kg/d): none of these manipulations lead to an improvement in survival | risk of aortic dissection (vEDS mice; celiprolol 200 mg/kg/d, vEDS mouse models): accelerated the risk of aortic dissection | protection from dissection or death (vEDS mice): significant acceleration of dissection and death | hemodynamic stress [2]: achieved the predicted lowering of hemodynamic stress | effect on blood pressure [2]: decreases in blood pressure | risk of aortic dissection (Col3a1^G209S/+ mice): increased risk of aortic dissection | adverse events in patients with vEDS (patients with vEDS): potential to delay adverse events

CCOC(=O)N[C@@H]1CC[C@@H]2[C@@H](C1)C[C@H]1C(=O)O[C@H](C)[C@H]1[C@H]2/C=C/c1ccc(-c2cccc(F)c2)cn1 [vorapraxar]
impact on survival (vEDS mice; vorapraxar 1 mg/kg/d): no impact on survival

CCCCc1nc(Cl)c(CO)n1Cc1ccc(-c2ccccc2-c2nn[nH]n2)cc1 [losartan]
impact on survival (vEDS mice; losartan 60 mg/kg/d): no impact on survival | protection from dissection or death (vEDS mice): no evidence of protection from dissection or death | hemodynamic stress [2]: achieved the predicted lowering of hemodynamic stress | aortic disease in MFS mice (MFS mice; MFS mice, literature refs 3-6): can suppress aortic disease | protection in mouse models of MFS or LDS (MFS mice; mouse models of MFS or LDS): afford dramatic protection

From patent US11938135B2, “Compositions and methods for treating vascular Ehlers Danlos syndrome and associated disorders” (The Johns Hopkins University, priority 2018, dated 2024)
